Experimental data taken from PubChem BioAssay (NCI).
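Five concentrations, 48 hours, 96-well plates. GI50 is the concentration that inhibits growth by half. TGI: total growth inhibition.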

Legend:
Assay in all cases: growth of human tumour cells (NCI), 48 h
[1] = test system: HS 578T breast
[2] = test system: NCI-H522 lung
[3] = test system: SF-268 CNS
[4] = test system: RXF 393 renal
[5] = test system: SK-MEL-28 melanoma
[6] = test system: NCI-H460 lung
[7] = test system: HCT-116 colon
[8] = test system: K-562 leukemia
[9] = test system: IGROV1 ovarian
[10] = test system: EKVX NSCLC
[11] = test system: CAKI-1 renal
[12] = test system: M14 melanoma
[13] = test system: SK-MEL-2 melanoma
[14] = test system: DU-145 prostate
[15] = test system: SNB-19 CNS
[16] = test system: MALME-3M melanoma
[17] = test system: MCF7 breast
[18] = test system: UO-31 renal
[19] = test system: SN12C renal
[20] = test system: BT-549 breast
[21] = test system: LOX IMVI melanoma
[22] = test system: ACHN renal
[23] = test system: NCI/ADR-RES ovarian
[24] = test system: KM12 colon
[25] = test system: MDA-MB-435
[26] = test system: MDA-MB-231 breast
[27] = test system: SR leukemia
[28] = test system: SNB-75 CNS
[29] = test system: A549 NSCLC
[30] = test system: COLO 205 colon
[31] = test system: NCI-H226 lung
[32] = test system: U251 CNS
[33] = test system: UACC-62 melanoma
[34] = test system: NCI-H23 lung
[35] = test system: OVCAR-5 ovarian
[36] = test system: HCC-2998 colon
[37] = test system: CCRF-CEM leukemia
[38] = test system: SF-295 CNS
[39] = test system: TK-10 renal
[40] = test system: HOP-62 NSCLC
[41] = test system: HOP-92 NSCLC
[42] = test system: HL-60(TB) leukemia
[43] = test system: OVCAR-8 ovarian
[44] = test system: HCT-15 colon
[45] = test system: HT29 colon
[46] = test system: 786-0 renal
[47] = test system: SW-620 colon
[48] = test system: MOLT-4 leukemia
[49] = test system: SK-MEL-5 melanoma
[50] = test system: SK-OV-3 ovarian
[51] = test system: PC-3 prostate
[52] = test system: RPMI-8226 leukemia
[53] = test system: T-47D breast
[54] = test system: OVCAR-4 ovarian
[55] = test system: OVCAR-3 ovarian
[56] = test system: UACC-257 melanoma
[57] = test system: SF-539 CNS

Structure (SMILES): CCCCCCNC(=O)Oc1ccc(/C(=C(\C)c2ccc(Cl)cc2)c2ccc(OCCN3CCCCC3)cc2)cc1
- GI50 [1]: 4.22 µM
- TGI [1]: 11.6 µM
- GI50 [2]: 6.14 µM
- TGI [2]: 13 µM
- GI50 [3]: 4.9 µM
- TGI [3]: 14 µM
- GI50 [4]: 3.3 µM
- TGI [4]: 7.55 µM
- GI50 [5]: 4.34 µM
- TGI [5]: 9.34 µM
- GI50 [6]: 1.57 µM
- TGI [6]: 5.46 µM
- GI50 [7]: 0.962 µM
- TGI [7]: 4.78 µM
- GI50 [8]: 0.923 µM
- TGI [8]: 3.51 µM
- GI50 [9]: 4.38 µM
- TGI [9]: 10.5 µM
- GI50 [10]: 5.04 µM
- TGI [10]: 14.4 µM
- GI50 [11]: 4.03 µM
- TGI [11]: 8.25 µM
- GI50 [12]: 0.785 µM
- TGI [12]: 3.65 µM
- GI50 [13]: 6.22 µM
- TGI [13]: 12.8 µM
- GI50 [14]: 6.26 µM
- TGI [14]: 16.4 µM
- GI50 [15]: 6.37 µM
- TGI [15]: 28.9 µM
- GI50 [16]: 3.36 µM
- TGI [16]: 7.7 µM
- GI50 [17]: 0.104 µM
- TGI [17]: 5.38 µM
- GI50 [18]: 2.14 µM
- TGI [18]: 6.57 µM
- GI50 [19]: 4.22 µM
- TGI [19]: 8.68 µM
- GI50 [20]: 3.61 µM
- TGI [20]: 8.12 µM
- GI50 [21]: 4.83 µM
- TGI [21]: 9.41 µM
- GI50 [22]: 4.87 µM
- TGI [22]: 9.55 µM
- GI50 [23]: 4.15 µM
- TGI [23]: 8.77 µM
- GI50 [24]: 3.53 µM
- TGI [24]: 10.4 µM
- GI50 [25]: 3.73 µM
- TGI [25]: 7.98 µM
- GI50 [26]: 5.35 µM
- TGI [26]: 10.2 µM
- GI50 [27]: 0.727 µM
- TGI [27]: 2.14 µM
- GI50 [28]: 5.59 µM
- TGI [28]: 14.3 µM
- GI50 [29]: 4.73 µM
- TGI [29]: 10.5 µM
- GI50 [30]: 1.44 µM
- TGI [30]: 6.44 µM
- GI50 [31]: 5.31 µM
- TGI [31]: 11.8 µM
- GI50 [32]: 3.52 µM
- TGI [32]: 7.92 µM
- GI50 [33]: 4.03 µM
- TGI [33]: 8.59 µM
- GI50 [34]: 3.89 µM
- TGI [34]: 9.61 µM
- GI50 [35]: 5.03 µM
- TGI [35]: 16 µM
- GI50 [36]: 4.39 µM
- TGI [36]: 9.17 µM
- GI50 [37]: 3.2 µM
- TGI [37]: 33.3 µM
- GI50 [38]: 4.79 µM
- TGI [38]: 9.62 µM
- GI50 [39]: 5.79 µM
- TGI [39]: 12.2 µM
- GI50 [40]: 5.28 µM
- TGI [40]: 11.9 µM
- GI50 [41]: 3.55 µM
- TGI [41]: 7.88 µM
- GI50 [42]: 1.17 µM
- TGI [42]: 4.88 µM
- GI50 [43]: 5.53 µM
- TGI [43]: 11.7 µM
- GI50 [44]: 1.07 µM
- TGI [44]: 4.71 µM
- GI50 [45]: 1.11 µM
- TGI [45]: 4.02 µM
- GI50 [46]: 1.93 µM
- TGI [46]: 6.41 µM
- GI50 [47]: 1.54 µM
- TGI [47]: 5.59 µM
- GI50 [48]: 1.47 µM
- TGI [48]: 23.3 µM
- GI50 [49]: 2.46 µM
- TGI [49]: 6.71 µM
- GI50 [50]: 5.42 µM
- TGI [50]: 13.6 µM
- GI50 [51]: 2.23 µM
- TGI [51]: 14.1 µM
- GI50 [52]: 1.84 µM
- TGI [52]: 9.68 µM
- GI50 [53]: 0.722 µM
- TGI [53]: 7.11 µM
- GI50 [54]: 2.35 µM
- TGI [54]: 7.73 µM
- GI50 [55]: 4.39 µM
- TGI [55]: 9.42 µM
- GI50 [56]: 4.13 µM
- TGI [56]: 9.98 µM
- GI50 [57]: 3.99 µM
- TGI [57]: 8.55 µM
